Results as given in patent US20150044701A1, “IgA-BINDING PEPTIDE AND IgA PURIFICATION USING THE SAME” (KAGOSHIMA UNIVERSITY, priority 2011, published 2015).
No end group written: not given here.

What was measured:
human IgA = assay: Surface plasmon resonance analysis (BiaCore T100) of peptide binding to human IgA; conditions: binding affinity to human IgA
Experimental: In order to verify binding specificity of such peptides, binding strength was evaluated via surface plasmon resonance analysis using a BiaCore T100 (GE Healthcare).

human IgA (human) = assay: SPR (Biacore T100)

| Kd (human IgA) [nM] | Kd (human IgA (human)) [nM] | Molecule |
| --- | --- | --- |
| 23 |  | HQVCLSYRGRPVCFSL [Opt2 M2Q] |
| 2820 |  | HQVCLSYRGQPTCFST [Opt2 M2Q L16T R10 Q V12T] |
| 603 |  | HMVCLSYRGRPVCF [Opt2 14AA] |
| 65 |  | HQVCLSYRGQPVCFSL [Opt2 M2Q R10Q] |
| 624 |  | HQVCLSYRGRPVCYSL [Opt2 M2Q F14Y] |
| 72 |  | HQVCLSYRGRPVCFST [Opt2 M2Q L16T] |
| 699 |  | HQVCLSYRGQPVCFST [Opt2 M2Q L16T R10Q] |
| 491 |  | HMVCLSYRGRPVCFS [Opt2 15AA] |
| 149 |  | HQVCLSYRGRPTCFSL [Opt2 M2Q V12T] |
| 952 |  | HQVCLSYRGRPTCFST [Opt2 M2Q L16T V12T] |
|  | 624 | HQVCLSYRGRPVCYSL (not fully specified (bridges); cysteine pairing not given here) [Opt2 M2Q F14Y] |
|  | 65 | HQVCLSYRGQPVCFSL (not fully specified (bridges); cysteine pairing not given here) [Opt2 M2Q R10Q] |
|  | 72 | HQVCLSYRGRPVCFST (not fully specified (bridges); cysteine pairing not given here) [Opt2 M2Q L16T] |
|  | 699 | HQVCLSYRGQPVCFST (not fully specified (bridges); cysteine pairing not given here) [Opt2 M2Q L16T R10Q] |
|  | 491 | HMVCLSYRGRPVCFS (not fully specified (bridges); cysteine pairing not given here) [Opt2 15AA] |
|  | 952 | HQVCLSYRGRPTCFST (not fully specified (bridges); cysteine pairing not given here) [Opt2 M2Q L16T V12T] |
|  | 603 | HMVCLSYRGRPVCF (not fully specified (bridges); cysteine pairing not given here) [Opt2 14AA] |
|  | 23 | HQVCLSYRGRPVCFSL (not fully specified (bridges); cysteine pairing not given here) [Opt2 M2Q] |
|  | 2820 | HQVCLSYRGQPTCFST (not fully specified (bridges); cysteine pairing not given here) [Opt2 M2Q L16T R10 Q V12T] |
|  | 149 | HQVCLSYRGRPTCFSL (not fully specified (bridges); cysteine pairing not given here) [Opt2 M2Q V12T] |
